From patent US20060099712A1, “Correlation of anti-cancer activity of dyes with redox potentials” (Eastman Kodak Company, priority 2004, published 2006) come the findings set out here.

Series [1] is described as follows: Electrochemical reduction potential (Er) measurement, SHACV / fast scan CV. Particulars: for Er: Table XIX, reduction potential vs. Ag/AgCl, in V (unit assumed). Type of series: physicochemical. The source says: In the practice of this invention the reduction potential of a given dye may be determined in various ways. If available, the published reduction potential may be employed. Reduction potentials for numerous cyanine and merocyanine dyes are available in the literature. (See J. Lenhard, Journal of Imaging Science, vol. 30 pp. 27-35 (1986).) A large amount of data has been generated on the reduction and oxidation potentials of these dyes from their use in photography and related arts where they are employed, inter alia, as spectral sensitizers.
(§1) If a published reduction potential is not available, suitable techniques for measuring reduction potential are available. Accurate electrochemical oxidation and reduction potentials for these organic dyes can be measured by the techniques of fast scan cyclic voltommetry (CV) or second harmonic ac voltommetry (SHACV). SHACV measurements are made as described by Lenhard in the Journal of Imaging Science volume 30, 1986 pp 27-35 using a commercially available (Princeton Applied Research Corp.) potentiostat in conjunction with voltage programmer, a conventional lock-in amplifier, and a low-distortion oscillator. The SHACV method utilizes an ac voltage waveform (of a frequency greater than or equal to 400 hz) that is superimposed on a DC potential ramp. On the other hand, the measurement of the oxidation or reduction potential by the CV method utilizes a (high frequency) triangular voltage waveform. The general procedures for measuring potentials by this method have been described by Wightman in Analytical Chemistry, 1984, vol. 56, pp524 and Journal of Physical Chemistry, 1984, vol. 88, pp3915. The specific application of this technique to the measurement of cyanine dye potentials has been reported by Nomura and Okazaki, Chemistry Letters, 1990, pp2231-2234. Commercial instrumentation especially designed for fast scan (i.e., high frequency) CV is available. It is noteworthy that because of the complicated nature of many of the cyanine dyes, electrochemical reactions, conventional slow scan cyclic voltommetry or polarography methods (as described by R. Large in Photographic Sensitivity, R. Cox, ed., Academic Press, New York, 1973, pp 241-263) provide only approximate values for oxidation and reduction potentials. Errors as large as 0.4 V from the true potential can be obtained by using slow scan CV or electrochemical methods.
(§2) The procedure for measuring the oxidation or reduction potential by the SHACV or fast scan CV method utilizes solutions of acetonitrile (or similar nonaqueous solvent) with added tetrabutylammonium tetrafluoroborate TBABF4 at a concentration of 0.1 M and ca. 5×10^−4 M of the cyanine, oxonol, or merocyanine dye. For measurement of the reduction potential the solution must be deaerated with argon prior to examination. The preferred working electrode is a Pt disk (ca. 0.02 cm^2) that is polished with 1 μm diamond paste, rinsed with water, and dried before each experiment. The reference electrode is a NaCl saturated calomel electrode. The cell and reference electrodes are maintained at 22 C. A value of 40 mV is added to the measured potentials to convert the number to that corresponding to an Ag/AgCl reference electrode. If a solvent other than acetonitrile is used then the measured potential must be referenced to a standard organic redox system such as ferrocene and corrected accordingly.
SHACV (Second Harmonic Alternating Current Voltametry) measurements are made as described by Lenhard in the Journal of Imaging Science volume 30, 1986 pp 27-35 using a commercially available (Princeton Applied Research Corp.) potentiostat in conjunction with voltage programmer, a conventional lock-in amplifier, and a low-distortion oscillator. The SHACV method utilizes an ac voltage waveform (of a frequency greater than or equal to 400 hz) that is superimposed on a DC potential ramp. […]

Series [2] in a line: Electrochemical oxidation potential measurement, SHACV / fast scan CV. Format: physicochemical. Particulars: Table XIX; oxidation potential vs. Ag/AgCl; in V (unit assumed).
Text: as §1, §2
The procedure for measuring the oxidation or reduction potential by the SHACV method utilizes solutions of acetonitrile (or similar nonaqueous solvent) with added tetrabutylammonium tetrafluoroborate TBABF4 at a concentration of 0.1 M and ca. 5×10^−4 M of the cyanine, oxonol, or merocyanine dye. […] A value of 40 mV is added to the measured potentials to convert the number to that corresponding to an Ag/AgCl reference electrode. If a solvent other than acetonitrile is used then the measured potential must be referenced to a standard organic redox system such as ferrocene and corrected accordingly.

Series [3] relates to CRL 1420 Human Pancreatic Carcinoma. The series can be described thus: Initial in vitro screening, pancreatic carcinoma cells. Type of series: cell-based. Particulars: for Selectivity: IC50 CV-1 / IC50 cell line 4 (pancreatic carcinoma); for IC50: read-out: IC50 (concentration at which 50% of the cells of the culture are killed). An excerpt: (§3) Other publications have shown that some cyanine dyes show anti-cancer activity. See I. Minami, Y. Kozai, H. Nomura and T. Tashiro, Chem. Phar. Bull. 30:3106 (1982); W. M. Anderson, D. L. Delinick, L. Benninger, J. M. Wood, S. T. Smiley and L. B. Chen, Biochemical Pharmacology, 45:691 (1993). […] (See L. G. S. Brooker, L. A. Sweet, Science, 105, (1947) and I. Minami, Y. Kozai, H. Nomura, T. Tashiro, Chem. Pharm. Bull., 30,3106 (1982) on chemotherapeutic investigations of cyanine dyes.) Table I lists initial in vitro screening results in various cell lines and a comparison with Adriamycin, which is a widely used chemotherapeutic agent.
(§4) Description of Cell Line • 1. CV-1 Normal Monkey Kidney Epithelial (control) • 2. CX-1 Human Colon Carcinoma • 3. Human Breast Carcinoma • 4. Human Pancreatic Carcinoma • 5. Human Bladder Carcinoma • 6. Human Lung Carcinoma • 7. Human Squamous Cell Carcinoma • 8. Human Adrenal Cortex Carcinoma

The test system of series [4] is MCF-7 Human Breast Carcinoma. Put plainly: Initial in vitro screening, breast carcinoma cells. Type of series: cell-based. Particulars: for Selectivity: IC50 CV-1 / IC50 cell line 3 (breast carcinoma); for IC50: MCF7, read-out: IC50 (concentration at which 50% of the cells of the culture are killed); for IC50 / IC50 (concentration at which 50% of the cells of the culture are killed): cell line 3, MCF-7 human breast carcinoma, unit from method.
Text: as §3, §4

Series [5] relates to CCL 185 Human Lung Carcinoma. Put plainly: Initial in vitro screening, lung carcinoma cells. Particulars: for Selectivity: IC50 CV-1 / IC50 cell line 6 (lung carcinoma); for IC50: read-out: IC50 (concentration at which 50% of the cells of the culture are killed). Type of series: cell-based.
Text: as §3, §4

Series [6] has as its system CCL 105 Human Adrenal Cortex Carcinoma. The series can be described thus: Initial in vitro screening, adrenal cortex carcinoma cells. Type of series: cell-based. Particulars: for Selectivity: IC50 CV-1 / IC50 cell line 8 (adrenal cortex carcinoma); for IC50: read-out: IC50 (concentration at which 50% of the cells of the culture are killed).
Text: as §3, §4

The subject of series [7] is EJ Human Bladder Carcinoma. Put plainly: Initial in vitro screening, bladder carcinoma cells. Type of series: cell-based. Particulars: for Selectivity: IC50 CV-1 / IC50 cell line 5 (bladder carcinoma); for IC50 / IC50 (concentration at which 50% of the cells of the culture are killed): cell line 5, EJ human bladder carcinoma, unit from method; for IC50: read-out: IC50 (concentration at which 50% of the cells of the culture are killed).
Text: as §3, §4

For series [8], the system named is SCC 68 Human Squamous Cell Carcinoma. The series can be described thus: Initial in vitro screening, squamous cell carcinoma cells. Type of series: cell-based. Particulars: for Selectivity: IC50 CV-1 / IC50 cell line 7 (squamous cell carcinoma); for IC50: read-out: IC50 (concentration at which 50% of the cells of the culture are killed).
Text: as §3, §4

Setting [9] is: cell line 4, CRL 1420 human pancreatic carcinoma, unit from method.
The mark [10] stands for this setting: cell line 6, CCL 185 human lung carcinoma, unit from method.
[11] abbreviates: cell line 8, CCL 105 human adrenal cortex carcinoma, unit from method.
Setting [12] is: cell line 7, SCC 68 human squamous cell carcinoma, unit from method.

Molecules are shown by their SMILES. Values after ≈ are worked out from the molar mass of the structure shown.

On to `CCN1/C(=C\C=C\C2=[N+](CC)c3ccccc3C2(C)C)C(C)(C)c2ccccc21` [Dye D-103], for which, in series [1], the Er was −1.000. The same compound returned an Eox in series [2] of 1.088.
For `CCN1C(=CC=Cc2sc3cc4ccccc4nc3[n+]2CC)Sc2cc3ccccc3nc21` [Dye D-150], the “ER(v), electrochemical reduction potential” value in series [1] is on record as “−.808 V”. The compound further came in with an Er in series [1] of −0.808. Also, the Selectivity in series [3] was determined as 100; in series [4] it was 100; in series [5] it was 150; in series [6], 300; in series [7] it was 300; in series [8], 30. Besides, the IC50 is 0.03 µg/mL in series [3] (setting [9]); 0.03 µg/mL in series [4]; 0.02 µg/mL in series [5] (setting [10]); 0.01 µg/mL in series [6] (setting [11]); 0.01 µg/mL in series [7]; 0.1 µg/mL in series [8] (setting [12]). In series [2], this compound yielded an Eox of 1.145.
Regarding `CCN1C(=CC=Cc2sc3cc4ccccc4cc3[n+]2CC)Sc2cc3ccccc3cc21` [AC-2], the “ER(v), electrochemical reduction potential” value in series [1] is “−.920 V”. For the same compound, the Selectivity in series [3], in series [4], in series [5], in series [6], in series [7] and in series [8] was more than 60 throughout. Besides, the “IC50 (concentration at which 50% of the cells of the culture are killed)” value in series [3] (setting [9]), in series [4], in series [5] (setting [10]), in series [6] (setting [11]), in series [7] and in series [8] (setting [12]) was “<.005 µg/mL” throughout.
As for `CCN1/C(=C/C=C/c2sc3ccccc3[n+]2CC)Sc2ccccc21.[I-]` [Dye D-101], the “ER(v), electrochemical reduction potential” value in series [1] is reported as −1.06 V. Besides, in series [1], the Er is −1.060. For the same compound, the Selectivity was 100 in series [3]; 13.3 in series [4]; 50 in series [5]; more than 100 in series [6]; more than 100 in series [7]; 13.3 in series [8]. Moreover, the “IC50 (concentration at which 50% of the cells of the culture are killed)” value in series [4] was 0.03 µg/mL; in series [7], less than 0.005 µg/mL. Further, in series [2], the Eox was determined as 0.902.
Take `CCN1/C(=C/C=C/c2sc3cc4ccccc4cc3[n+]2CC)Sc2cc3ccccc3cc21` [Dye D-109]: in series [1], the Er is on record as −0.920. In series [2], this compound came in with an Eox of 1.015.
Take `CCN1/C(=C/C=C/c2sc3cc4ccccc4cc3[n+]2CC)Sc2cc3ccccc3cc21` [Dye D-160]: the Er in series [1] is listed as −0.920. Further, the IC50 in series [3] (setting [9]), in series [4], in series [5] (setting [10]), in series [6] (setting [11]), in series [7] and in series [8] (setting [12]) was less than 0.005 µg/mL throughout. Besides, the Eox in series [2] stood at 1.015.
`COc1cccc2c1C(=O)c1c(O)c3c(c(O)c1C2=O)C[C@@](O)(C(=O)CO)C[C@@H]3O[C@H]1C[C@H](N)[C@H](O)[C@H](C)O1` [Adriamycin, reference compound]: the “ER(v), electrochemical reduction potential” value in series [1] is −0.68 V. The Selectivity was 13 in series [3]; 16 in series [4]; 11 in series [5]; 16 in series [6]; 8 in series [7]; 10 in series [8]. Besides, the IC50 worked out at 0.06 µg/mL (≈ 0.11 µM) in series [3] (setting [9]); 0.05 µg/mL (≈ 0.092 µM) in series [4]; 0.07 µg/mL (≈ 0.129 µM) in series [5] (setting [10]); 0.05 µg/mL (≈ 0.092 µM) in series [6] (setting [11]); 0.1 µg/mL (≈ 0.184 µM) in series [7]; 0.08 µg/mL (≈ 0.147 µM) in series [8] (setting [12]).
